Laboratory results taken from US20120302609A1, “Pyrazolines for the Modulation of PKM2” (Dynamix Pharmaceuticals LTD., priority 2011, published 2012).

Key:
PKM2, human recombinant = target: T1, PKM2, human recombinant (Homo sapiens, UniProt P14618); experiment: PKM2 enzymatic activity assay (Kinase-Glo Plus luminescence); assay type: biochemical; details: for AC50: 0.1 nM PKM2, 0.1 mM ADP, 0.5 mM PEP, 1 hour, room temperature, read-out: AC50 group; for Emax: 1 h, read-out: Max activity Group; for Emax / Max activity Group: maximum percent activity, luminescence without compound = 0% activity;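 as to Max activity Group: percent increase over no-compound signal after subtracting the no-PKM2 background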
T1 construct: purchased BPS 50295
T1 sequence (P14618 whole entry): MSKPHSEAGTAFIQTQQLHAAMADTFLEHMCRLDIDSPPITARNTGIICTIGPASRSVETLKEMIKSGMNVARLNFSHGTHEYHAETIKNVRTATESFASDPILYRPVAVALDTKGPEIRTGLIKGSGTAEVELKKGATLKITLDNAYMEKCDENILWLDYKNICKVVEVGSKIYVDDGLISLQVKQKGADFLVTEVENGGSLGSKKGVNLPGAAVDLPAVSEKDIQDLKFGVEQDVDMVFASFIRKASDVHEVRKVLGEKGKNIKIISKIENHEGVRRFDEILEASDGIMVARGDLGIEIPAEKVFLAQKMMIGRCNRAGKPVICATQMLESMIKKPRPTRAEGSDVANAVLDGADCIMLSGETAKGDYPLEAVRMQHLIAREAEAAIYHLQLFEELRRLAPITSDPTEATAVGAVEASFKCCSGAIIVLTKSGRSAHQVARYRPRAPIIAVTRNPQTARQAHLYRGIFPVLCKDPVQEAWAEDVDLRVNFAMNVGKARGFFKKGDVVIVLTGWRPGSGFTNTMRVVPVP
Procedure: PKM2 performs the following enzymatic reaction, where the PKM2 substrates, PEP (phosphoenolpyruvate) and ADP, are converted to pyruvate and ATP as follows:
All of the enzymatic reactions were conducted in duplicates at room temperature for 1 hour in a 50 μL mixture containing: • PKM2 assay buffer (50 mM Imidazole, pH 7.2; 7 mM MgCl2; 50 mM KCl; 0.01% Tween; • and 0.05% BSA), 0.1 mM ADP, 0.5 mM PEP, 0.1 nM PKM2 enzyme (PKM2, human recombinant (BPS catalog number 50295)) and the indicated test compound. Fructose 1,6 biphosphat e, (FBP (Sigma)) was used as a positive control for activation at concentration of 0.5 mM. After enzymatic reactions, 50 μL of Kinase-Glo® Plus reagent (Promega kit) was added to each well and luminescence was measured using a BioTek Synergy™ 2 microplate reader.
PKM2 activity assays were performed in duplicates at each concentration. The luminescence data were analyzed using the computer software, GraphPad PRISM®. In the absence of the compound, the luminescence was defined as 0% activity. The percent activity in the presence of each compound was calculated according to the following equation:
% Activity=[(L−Lb)/(Lt−Lb)−1]×100%
where L=the luminescence in the presence of the test compound, Lb=the luminescence in the absence of PKM2, and Lt=the luminescence intensity in the absence of the test compound. The % activity values versus a series of compound concentrations were plotted using non-linear regression analysis of Sigmoidal dose-response curve generated with the equation Y=B+(T−B)/1+10^((LogEC50-X)×Hill Slope), where Y=percent activity, B=minimum percent activity, T=maximum percent activity, X=logarithm of compound and Hill Slope=slope factor or Hill coefficient. The AC50 values, shown in Table 2 were determined for the indicated test compounds as the concentration causing a half-maximal percent activity.

H1299 (lung) = experiment: Cell proliferation assay (CellTiter-Glo Luminescent); assay type: cell-based, human; details: 96 hr
Procedure: 1. Cells were grown according to the ATCC conditions. 2. Cell feeding (passaging) was timed such that the cells were in exponential growth phase at the time of the assay.
3. On day 1, H1299 cells were counted. Cell numbers were adjusted to the desired cell concentration in Media 1: RPMI 1640 Invitrogen 11879020 (that contained no glucose or pyruvate) with 10% FBS, and 1 mM D-Glucose (4 μl of 2.5 M D-glucose G8769 was added in preparing 10 ml RPMI media with 1 mM glucose). A 200 μl of H1299 cell suspension was added to appropriate wells in the 96-well plates, and incubated at 37° C. in the CO2 cell incubator under normal growing conditions for overnight. 4. On day 2, a 100 mM stock concentration of test compounds in 100% DMSO was prepared and serially diluted with 100% DMSO to 33.33 mM, 11.11 mM, and 3.7 mM. A 1:1000 dilution was made to each concentration in media 1 (yielding 0.1% final DMSO concentration). The media was aspirated completely from the cell plate. Each 100 μl of the following solutions (100 μM, 33.33 μM, 11.11 μM, and 3.7 μM) was added to the cells. DMSO in a final concentration of 0.1%, and media without DMSO, were added to the cells and used as a negative control. Empty wells around the experimental wells were filled with PBS. The plate was sealed with parafilm to reduce evaporation. 5. The plate was incubated under normal conditions (5% CO2, and 95% air), for 96 hours at 37° C. 6. On day 6 (after 96 hr incubation), the plate was equilibrated to room temperature for approximately 30 minutes. A 100 μl of CellTiter-Glo Reagent was added in each well of the plate. Contents were mixed for 2 minutes on an orbital shaker to induce cell lysis. The plate was incubated at room temperature for 10 minutes to stabilize luminescent signal. Luminescence was recorded with Flexstation 3.
Unless noted otherwise, proliferation of control or compound treated H1299 cells was measured using CellTiter-Glo Luminescent assay following 96 hr incubation of the cells with and without test compounds. The AC50 values, shown in Table 3, were coded according to follows: A: <3 μM; B: 3-10 μM; C: 10-20 μM; or D: >20 μM.

786-O (kidney) = experiment: as above; assay type: cell-based; details: Homo sapiens, 786-0, 1 mM glucose, 96 hr
[1] = Homo sapiens, NCI-H1299, 1 mM glucose

SMILES	AC50 (PKM2, human recombinant)	Emax (PKM2, human recombinant)	AC50 (H1299 (lung); [1])	AC50 (786-O (kidney))	AC50 (H1299 (lung); 1 mM glucose)	Max activity Group (PKM2, human recombinant)	AC50 (H1299 (lung); Complete media)
COc1ccc(C2CC(c3ccc(NS(=O)(=O)c4cccc(OC)c4)cc3)=NN2C(C)=O)cc1 (racemic) [Compound 18A, N-(4-(1-Acetyl-5-(4-methoxyphenyl)-4,5-dihydro-1H-pyrazol-3-yl)phenyl)-3-methoxy benzenesulfonamide]	≤ 1 µM	130 to 200%	> 20 µM				
COc1ccc(C2CC(c3ccc(NS(=O)(=O)c4ccc(Cl)cc4)cc3)=NN2C(C)=O)cc1 (racemic) [Compound 26A, N-(4-(1-Acetyl-5-(4-methoxyphenyl)-4,5-dihydro-1H-pyrazol-3-yl)phenyl)-4-chloro benzenesulfonamide]	≤ 1 µM	≤ 130%	> 20 µM	3 to 10 µM			
COc1ccc(C2CC(c3ccc(NS(=O)(=O)c4cccc(OC)c4)cc3)=NN2C(C)=O)cc1 (single isomer, unassigned) [Compound 29A]			> 20 µM				
CC(=O)N1N=C(c2ccc(NS(=O)(=O)c3ccc(F)cc3)cc2)CC1c1ccc(F)cc1 (single isomer, unassigned) [Compound 36A]	≤ 1 µM		> 20 µM	3 to 10 µM			
COc1ccc(C2CC(c3ccc(NS(=O)(=O)c4ccc(Cl)cc4)cc3)=NN2C(C)=O)cc1 (single isomer, unassigned) [Compound 37A]			> 20 µM				
COc1ccc(C2CC(c3ccc(NS(=O)(=O)c4ccc(Cl)cc4)cc3)=NN2C(C)=O)cc1 (single isomer, unassigned) [Compound 38A]					> 20 µM		
COc1ccc(C2CC(c3ccc(NS(=O)(=O)c4ccc(OC)cc4)cc3)=NN2C(C)=O)cc1 (single isomer, unassigned) [Compound 39A]	≤ 1 µM		> 20 µM			C (C: ≦130%)	
COc1ccc(C2CC(c3ccc(NS(=O)(=O)c4ccc(OC)cc4)cc3)=NN2C(C)=O)cc1 (single isomer, unassigned) [Compound 40A]	≤ 1 µM				> 20 µM	A (A: ≧200%)	> 20 µM
COc1ccc(C2CC(c3ccc(NS(=O)(=O)c4ccc(C(F)(F)F)cc4)cc3)=NN2C(C)=O)cc1 (stereo not shown) [Compound 21A, N-(4-(1-Acetyl-5-(4-methoxyphenyl)-4,5-dihydro-1H-pyrazol-3-yl)phenyl)-4-(trifluoromethyl)benzenesulfonamide]	≤ 1 µM	130 to 200%	10 to 20 µM	3 to 10 µM			
COc1ccc(C2CC(c3ccc(NS(=O)(=O)c4ccc(F)cc4)cc3)=NN2C(C)=O)cc1Cl (stereo not shown) [Compound 32A, N-(4-(1-Acetyl-5-(3-chloro-4-methoxyphenyl)-4,5-dihydro-1H-pyrazol-3-yl)phenyl)-4-fluorobenzenesulfonamide]			> 20 µM	3 to 10 µM			
COc1ccc(C2CC(c3ccc(NS(=O)(=O)c4cccc(F)c4)cc3)=NN2C(C)=O)cc1 (stereo not shown) [Compound 33A, N-(4-(1-Acetyl-5-(4-methoxyphenyl)-4,5-dihydro-1H-pyrazol-3-yl)phenyl)-3-fluoro benzenesulfonamide]	≤ 1 µM	130 to 200%	> 20 µM				
COc1ccc(C2CC(c3ccc(NS(=O)(=O)c4cccc(C(F)(F)F)c4)cc3)=NN2C(C)=O)cc1 (stereo not shown) [Compound 34A, N-(4-(1-Acetyl-5-(4-methoxyphenyl)-4,5-dihydro-1H-pyrazol-3-yl)phenyl)-3-(trifluoromethyl)benzenesulfonamide]			> 20 µM	3 to 10 µM			
CC(=O)N1N=C(c2ccc(NS(=O)(=O)c3ccc(F)cc3)cc2)C[C@@H]1c1ccc(C)cc1 [Compound 41A, (R)—N-(4-(1-Acetyl-5-(p-tolyl)-4,5-dihydro-1H-pyrazol-3-yl)phenyl)-4-fluorobenzene sulfonamide]			10 to 20 µM	3 to 10 µM			
COc1cccc([C@H]2CC(c3ccc(NS(=O)(=O)c4ccc(F)cc4)cc3)=NN2C(C)=O)c1 [Compound 42A, (R)—N-(4-(1-Acetyl-5-(3-methoxyphenyl)-4,5-dihydro-1H-pyrazol-3-yl)phenyl)-4-fluoro benzenesulfonamide]				10 to 20 µM			
COc1ccc(S(=O)(=O)Nc2ccc(C3=NN(C(C)=O)C(c4ccc(F)cc4)C3)cc2)cc1 (stereo not shown) [Compound 45A]	≤ 1 µM	≤ 130%	> 20 µM	3 to 10 µM			
COc1ccccc1C1CC(c2ccc(NS(=O)(=O)c3ccc(F)cc3)cc2)=NN1C(C)=O (stereo not shown) [Compound 47A, N-(4-(1-Acetyl-5-(2-methoxyphenyl)-4,5-dihydro-1H-pyrazol-3-yl)phenyl)-4-fluoro benzenesulfonamide]			> 20 µM	3 to 10 µM			
